Source: ChEMBL document CHEMBL5131412, “Synthesis of unnatural morphinan compounds to induce itch-like behaviors in mice: Towards the development of MRGPRX2 selective ligands” (Bioorg Med Chem Lett, 2022)
pEC50: −log10 of the molar value. Activity calls are given as the source filed them. The calls are words filed in the database; no cut-off is given here. Bridge positions count the residues as written; N and C are the ends. Peptide text beside a SMILES is read from it.

What was measured:
[1] = target: T1, Mas-related G-protein coupled receptor member X2 (Homo sapiens) (UniProt Q96LB1); assay: Agonist activity at MRGPRX2 (unknown origin) expressed in HEK293 cells assessed as induction of G(o) dissociation by measuring luminescent decay at 10 uM by NanoBiT-G-protein dissociation assay; type: functional, cell-based; details: filed as agonist
T1 sequence (whole entry): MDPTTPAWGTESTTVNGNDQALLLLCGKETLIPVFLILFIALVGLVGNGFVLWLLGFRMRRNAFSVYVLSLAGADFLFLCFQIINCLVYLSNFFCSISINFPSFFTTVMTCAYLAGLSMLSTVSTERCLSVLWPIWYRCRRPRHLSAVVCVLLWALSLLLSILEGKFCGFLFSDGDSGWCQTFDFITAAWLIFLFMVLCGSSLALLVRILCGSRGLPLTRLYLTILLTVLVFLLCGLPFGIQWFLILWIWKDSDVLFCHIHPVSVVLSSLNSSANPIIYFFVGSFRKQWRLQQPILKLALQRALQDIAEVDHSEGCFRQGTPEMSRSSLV

[2] = target: T2, Mas-related G-protein coupled receptor member B2 (Mus musculus) (UniProt Q3KNA1); assay: Agonist activity at mouse Mrgprb2 expressed in HEK293 cells assessed as induction of G(o) dissociation by measuring luminescent decay at 10 uM by NanoBiT-G-protein dissociation assay; type: cell-based; details: filed as agonist
T2 sequence (whole entry): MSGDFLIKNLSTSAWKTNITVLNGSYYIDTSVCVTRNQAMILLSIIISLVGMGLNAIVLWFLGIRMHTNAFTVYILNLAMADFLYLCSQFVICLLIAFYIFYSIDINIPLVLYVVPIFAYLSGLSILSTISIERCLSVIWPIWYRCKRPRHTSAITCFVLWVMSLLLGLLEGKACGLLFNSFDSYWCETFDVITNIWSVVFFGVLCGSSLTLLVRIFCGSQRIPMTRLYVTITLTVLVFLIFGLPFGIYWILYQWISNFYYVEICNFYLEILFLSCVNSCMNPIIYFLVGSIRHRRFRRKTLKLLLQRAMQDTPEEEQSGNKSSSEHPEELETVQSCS

[3] = target: T1, Mas-related G-protein coupled receptor member X2 (Homo sapiens); assay: Agonist activity at MRGPRX2 (unknown origin) expressed in HEK293 cells assessed as induction of G(o) dissociation by measuring luminescent decay at 32 uM by NanoBiT-G-protein dissociation assay; type: functional, cell-based; details: filed as agonist
[4] = target: T2, Mas-related G-protein coupled receptor member B2 (Mus musculus); assay: Agonist activity at mouse Mrgprb2 expressed in HEK293 cells assessed as induction of G(o) dissociation by measuring luminescent decay at 32 uM by NanoBiT-G-protein dissociation assay; type: cell-based; details: filed as agonist
Mus musculus [5] = species: Mus musculus; assay: Increase in number of nociceptive behaviors in mouse at 3 to 30 ug, it; type: functional; details: dose 3-30 µg, DDE = dose-dependent effect
Mus musculus [6] = species: Mus musculus; assay: Increase in number of nociceptive behaviors in mouse at 30 ug, it; type: functional; details: dose 30.0 µg
Mus musculus [7] = species: Mus musculus; assay: Increase in number of scratching behaviors in mouse at 3 to 300 ug, id; type: functional; details: dose 3-300 µg, DDE = dose-dependent effect
[8] = target: T3, Mas-related G-protein coupled receptor member X2 (Homo sapiens, UniProt Q96LB1); assay: Agonistic activity at MRGPRX2 (unknown origin)
T3 sequence (Q96LB1 whole entry): T1 sequence (whole entry)

| Structure (SMILES) | Activity [1] | Activity [2] | Activity [3] | Activity [4] | Activity (Mus musculus [5]) | Activity (Mus musculus [6]) | Activity (Mus musculus [7]) | pEC50 [8] |
| --- | --- | --- | --- | --- | --- | --- | --- | --- |
| C[C@@H](O)[C@@H]1NC(=O)[C@H](CCCCN)NC(=O)[C@H](Cc2c[nH]c3ccccc23)NC(=O)[C@H](Cc2ccccc2)NC(=O)[C@H](Cc2ccccc2)NC(=O)[C@H](CC(N)=O)NC(=O)[C@H](CCCCN)NC(=O)[C@@H](NC(=O)[C@@H]2CCCN2)CSSC[C@@H](C(=O)N[C@@H](CCCCN)C(=O)O)NC(=O)[C@H](CO)NC(=O)[C@H](CO)NC(=O)[C@H](Cc2ccccc2)NC1=O (H-PCKNFFWKTFSSCK-OH; disulfide 2-13) | Active | Active |  |  |  |  |  |  |
| CN1CC[C@]23Cc4nc5ccccc5cc4C[C@@]2(O)[C@H]1Cc1ccc(O)cc13 |  |  | Active | Active | Dde | Active | Dde |  |
| CN1CC[C@]2(c3cccc(O)c3)Cc3nc4ccccc4cc3C[C@@H]2C1 |  |  | Active | Active |  |  |  | 6.54 |
